Measured values taken from patent US20240190890A1, “MK2 INHIBITORS AND USES THEREOF” (Bristol-Myers Squibb Company, priority 2022, published 2024).

molecular target: p38a activated, mitogen-activated protein kinase-activated protein kinase 2 (MAPKAP-K2 or MK2) enzyme (Homo sapiens (Human), UniProt P49137); experiment: MK2 Omnia continuous-read kinase assay for compound potency; format: biochemical; details: [MK-2]=0.4 nM, [ATP]=10 μM, [ST3-Sox]=10 μM; room temperature
From the text: Mitogen-Activated Protein Kinase-Activated Protein Kinase 2 Omnia® Assay for Compound Potency Assessment:
The protocol below describes a continuous-read kinase assay optimized to measure potency of compounds against p38a activated, mitogen-activated protein kinase-activated protein kinase 2 (MAPKAP-K2 or MK2) enzyme. Further details of this assay are described by Life Technologies, Carlsbad, CA on their website at the following URL: http://tools.lifetechnologies.com/content/sfs/manuals/omnia_kinase_assay_man.pdf. • [Reagent] used: • [MK-2]=0.4 nM, • [ATP]=10 μM and • [ST3-Sox]=10 μM (ATP^appKM=10 μM)
Briefly, 10× stock solutions of MK2 (PV3317, from Life Technologies), 1.13X ATP (AS001A), and Sox conjugated peptide substrate, S/T3-Sox, (KZN1031) were prepared in 1× kinase reaction buffer consisting of 20 mM Tris, pH 7.5, 5 mM MgCl2, 1 mM EGTA, 5 mM β-glycerophosphate, 5% glycerol (10× stock, KB001A) and 0.2 mM DTT (DS001A). Enzyme solution (5 μL) was added to each of DMSO ([…]) or serially diluted test compounds prepared in DMSO in a Corning (#3574) 384-well, white, non-binding surface microtiter plate (Corning, NY). Kinase reactions were started with the addition of 45 μL of the ATP-peptide substrate S/T3-Sox mix and monitored every 71 seconds for 120 minutes at λex360/λem485 in a Synergy H4 plate reader from BioTek (Winooski, VT) at room temperature.
Background signals from the no enzyme control wells were subtracted from all progress curves. The initial linear portions of the net progress curves were fit according to a linear equation to yield the slope and percentage of inhibition (% inhibition) at each compound concentration. The net progress curves obtained during the first two hours of reactions were also fit according to an ascending single-exponential equation (Eq. 1) to yield kobs values at each compound concentration. Plots of % Inhibition versus inhibitor concentrations were fit according to a dose-response equation (Eq. 2) to generate IC50 and Hill slope values while plots of kobs versus inhibitor concentration were fit according to Equation 3 (Eq. 3) to generate apparent kinact/K1 values using the GraphPad PRISM software (Version 6.00; GraphPad San Diego, CA).
where F is the fluorescence intensity from the plate reader, V0 is a constant reflecting the relationship between the instrument readout and product concentration, t is time, e is Euler's number, and kobs is the observed inactivation rate constant.
where % Inhibition is percentage of inhibition, IC50 is half maximal inhibitory concentration, [I] is the inhibitor concentration, and n is the Hill slope.
where kobs is the observed inactivation rate constant, kinact is the apparent inactivation rate constant, K1 is the apparent inhibition constant, and [I] is the inhibitor concentration. […] Potency results for the compounds tested are shown in Table 4 in the column entitled “MK2 IC50.”

Chain of p38a activated, mitogen-activated protein kinase-activated protein kinase 2 (MAPKAP-K2 or MK2) enzyme (P49137 whole entry): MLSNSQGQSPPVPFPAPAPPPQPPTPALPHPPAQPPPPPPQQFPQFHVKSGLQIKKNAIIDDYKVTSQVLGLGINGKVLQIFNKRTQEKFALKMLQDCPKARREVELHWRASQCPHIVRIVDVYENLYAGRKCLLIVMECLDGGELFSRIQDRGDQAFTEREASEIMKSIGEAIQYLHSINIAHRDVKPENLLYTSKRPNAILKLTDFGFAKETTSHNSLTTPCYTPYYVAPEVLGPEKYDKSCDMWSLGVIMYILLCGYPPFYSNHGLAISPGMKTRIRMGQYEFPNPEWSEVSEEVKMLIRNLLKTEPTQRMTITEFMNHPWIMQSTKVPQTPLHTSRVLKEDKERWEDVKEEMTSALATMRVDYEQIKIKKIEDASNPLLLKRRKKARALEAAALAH

Row | Compound | IC50
1 | C[C@@H]1CNc2c(sc3ccc4nc(-c5nc(Cl)ncc5C#N)ccc4c23)C(=O)N1 [Example I-9, (R)-2-chloro-4-(10-methyl-8-oxo-9,10,11,12-tetrahydro-8H-[1,4]diazepino[5′,6′:4,5]thieno[3,2-f]quinolin-3-yl)pyrimidine-5-carbonitrile] | 0.097 µM
2 | C=Cc1cc(-c2ccc3c(ccc4sc5c(c43)NC[C@@H](C)NC5=O)n2)c(C2CC2)cn1 [Example I-196, (R)-3-(5-cyclopropyl-2-vinylpyridin-4-yl)-10-methyl-9,10,11,12-tetrahydro-8H-[1,4]diazepino[5′,6′:4,5]thieno[3,2-f]quinolin-8-one] | 0.005 µM
3 | C[C@@H]1CNc2c(sc3ccc4nc(-c5cc(Cl)ncc5F)ccc4c23)C(=O)N1 [Example I-69, (R)-3-(2-chloro-5-fluoropyridin-4-yl)-10-methyl-9,10,11,12-tetrahydro-8H-[1,4]diazepino[5′,6′:4,5]thieno[3,2-f]quinolin-8-one] | 0.027 µM
4 | C#Cc1cc(-c2ccc3c(ccc4sc5c(c43)NC[C@@H](C)NC5=O)n2)cc(N2CCOCC2)n1 [Example I-157, (R)-3-(2-ethynyl-6-morpholinopyridin-4-yl)-10-methyl-9,10,11,12-tetrahydro-8H-[1,4]diazepino[5′,6′:4,5]thieno[3,2-f]quinolin-8-one] | 0.214 µM
5 | C=Cc1cc(-c2ccc3c(ccc4sc5c(c43)NC[C@@H](C)NC5=O)n2)c(CO)cn1 [Example I-252, (R)-3-(5-(hydroxymethyl)-2-vinylpyridin-4-yl)-10-methyl-9,10,11,12-tetrahydro-8H-[1,4]diazepino[5′,6′:4,5]thieno[3,2-f]quinolin-8-one] | 0.005 µM
6 | C=Cc1cc(N2CCN(C)CC2)nc(-c2ccc3c(ccc4sc5c(c43)NC[C@@H](C)NC5=O)n2)n1 [Example I-62, (R)-10-methyl-3-(4-(4-methylpiperazin-1-yl)-6-vinylpyrimidin-2-yl)-9,10,11,12-tetrahydro-8H-[1,4]diazepino[5′,6′:4,5]thieno[3,2-f]quinolin-8-one] | 0.027 µM
7 | C=Cc1cc(-c2ccc3c(ccc4sc5c(c43)NC[C@@H](C)NC5=O)n2)c(Cl)cn1 [Example I-143, (R)-3-(5-chloro-2-vinylpyridin-4-yl)-10-methyl-9,10,11,12-tetrahydro-8H-[1,4]diazepino[5′,6′:4,5]thieno[3,2-f]quinolin-8-one] | 0.059 µM
8 | C[C@@H]1CNc2c(sc3ccc4nc(-c5nc(Cl)nc6c5CN(C)CC6)ccc4c23)C(=O)N1 [Example I-192, (R)-3-(2-chloro-6-methyl-5,6,7,8-tetrahydropyrido[4,3-d]pyrimidin-4-yl)-10-methyl-9,10,11,12-tetrahydro-8H-[1,4]diazepino[5′,6′:4,5]thieno[3,2-f]quinolin-8-one] | 0.257 µM
9 | C=Cc1cc(-c2ccc3c(ccc4sc5c(c43)NC[C@@H](C)NC5=O)n2)ncn1 [Example I-34, (R)-10-methyl-3-(6-vinylpyrimidin-4-yl)-9,10,11,12-tetrahydro-8H-[1,4]diazepino[5′,6′:4,5]thieno[3,2-f]quinolin-8-one] | 0.013 µM
10 | (R)-10-methyl-3-(6-(3-morpholinoprop-1-en-2-yl)pyrimidin-4-yl)-9,10,11,12-tetrahydro-8H-[1,4]diazepino[5′,6′:4,5]thieno[3,2-f]quinolin- [Example I-139] | 0.002 µM
11 | C[C@@H]1CNc2c(sc3ccc4nc(-c5cccc(Cl)n5)ccc4c23)C(=O)N1 [Example I-52, (R)-3-(6-chloropyridin-2-yl)-10-methyl-9,10,11,12-tetrahydro-8H-[1,4]diazepino[5′,6′:4,5]thieno[3,2-f]quinolin-8-one] | 0.116 µM
12 | C[C@@H]1CNc2c(sc3ccc4nc(-n5cc(Cl)cn5)ccc4c23)C(=O)N1 [Example I-152, (R)-3-(4-chloro-1H-pyrazol-1-yl)-10-methyl-9,10,11,12-tetrahydro-8H-[1,4]diazepino[5′,6′:4,5]thieno[3,2-f]quinolin-8-one] | 0.086 µM
13 | [2H]C([2H])([2H])N1CCN(c2cc(-c3ccc4c(ccc5sc6c(c54)NC[C@@H](C)NC6=O)n3)cc(C#C)n2)CC1 [Example I-172, (R)-3-(2-ethynyl-6-(4-(methyl-d3)piperazin-1-yl)pyridin-4-yl)-10-methyl-9,10,11,12-tetrahydro-8H-[1,4]diazepino[5′,6′:4,5]thieno[3,2-f]quinolin-8-one] | 0.097 µM
14 | C=C(C)c1cc(-c2ccc3c(ccc4sc5c(c43)NC[C@@H](C)NC5=O)n2)nc(COCC)n1 [Example I-37, (R)-3-(2-(ethoxymethyl)-6-(prop-1-en-2-yl)pyrimidin-4-yl)-10-methyl-9,10,11,12-tetrahydro-8H-[1,4]diazepino[5′,6′:4,5]thieno[3,2-f]quinolin-8-one] | 0.01 µM
15 | C#Cc1ncc(F)c(-c2ccc3c(ccc4sc5c(c43)NC[C@@H](C)NC5=O)n2)n1 [Example I-1, (R)-3-(2-ethynyl-5-fluoropyrimidin-4-yl)-10-methyl-9,10,11,12-tetrahydro-8H-[1,4]diazepino[5′,6′:4,5]thieno[3,2-f]quinolin-8-one] | 0.005 µM
16 | C[C@@H]1CNc2c(sc3ccc4nc(-c5nc(Cl)ncc5COC5COC5)ccc4c23)C(=O)N1 [Example I-20, (R)-3-(2-chloro-5-((oxetan-3-yloxy)methyl)pyrimidin-4-yl)-10-methyl-9,10,11,12-tetrahydro-8H-[1,4]diazepino[5′,6′:4,5]thieno[3,2-f]quinolin-8-one] | 0.224 µM
17 | C=Cc1cc(-c2ccc3c(ccc4sc5c(c43)NC[C@@H](C)NC5=O)n2)c(C)c(C)n1 [Example I-194, (R)-3-(2,3-dimethyl-6-vinylpyridin-4-yl)-10-methyl-9,10,11,12-tetrahydro-8H-[1,4]diazepino[5′,6′:4,5]thieno[3,2-f]quinolin-8-one] | 0.005 µM
18 | Cc1cnc(Cl)nc1-c1ccc2c(ccc3sc4c(c32)NC[C@@H](C)NC4=O)n1 [Example I-6, (R)-3-(2-chloro-5-methylpyrimidin-4-yl)-10-methyl-9,10,11,12-tetrahydro-8H-[1,4]diazepino[5′,6′:4,5]thieno[3,2-f]quinolin-8-one] | 0.912 µM
19 | C[C@@H]1CNc2c(sc3ccc4nc(-c5cc(/C=C/CN(C)C)ncn5)ccc4c23)C(=O)N1 [Example I-115, (R,E)-3-(6-(3-(dimethylamino)prop-1-en-1-yl)pyrimidin-4-yl)-10-methyl-9,10,11,12-tetrahydro-8H-[1,4]diazepino[5′,6′:4,5]thieno[3,2-f]quinolin-8-one] | 0.037 µM
20 | C[C@@H]1CNc2c(sc3ccc4nc(-c5ccnc(/C=C/CN(C)C)c5)ccc4c23)C(=O)N1 [Example I-114, (R,E)-3-(2-(3-(dimethylamino)prop-1-en-1-yl)pyridin-4-yl)-10-methyl-9,10,11,12-tetrahydro-8H-[1,4]diazepino[5′,6′:4,5]thieno[3,2-f]quinolin-8-one] | 0.011 µM
21 | C=Cc1cc(-c2ccc3c(ccc4sc5c(c43)NC[C@@H](C)NC5=O)n2)cc(N2CCNCC2)n1 [Example I-175, (R)-10-methyl-3-(2-(piperazin-1-yl)-6-vinylpyridin-4-yl)-9,10,11,12-tetrahydro-8H-[1,4]diazepino[5′,6′:4,5]thieno[3,2-f]quinolin-8-one] | 0.01 µM
22 | C=Cc1nc(C)c(C)n1-c1ccc2c(ccc3sc4c(c32)NC[C@@H](C)NC4=O)n1 [Example I-231, (R)-3-(4,5-dimethyl-2-vinyl-1H-imidazol-1-yl)-10-methyl-9,10,11,12-tetrahydro-8H-[1,4]diazepino[5′,6′:4,5]thieno[3,2-f]quinolin-8-one] | 0.028 µM
23 | C[C@@H]1CNc2c(sc3ccc4nc(-c5nc(Cl)ncc5COC5(C)COC5)ccc4c23)C(=O)N1 [Example I-28, (R)-3-(2-chloro-5-(((3-methyloxetan-3-yl)oxy)methyl)pyrimidin-4-yl)-10-methyl-9,10,11,12-tetrahydro-8H-[1,4]diazepino[5′,6′:4,5]thieno[3,2-f]quinolin-8-one] | 0.018 µM
24 | C=Cc1cc(-c2ccc3c(ccc4sc5c(c43)NC[C@@H](C)NC5=O)n2)c(F)cn1 [Example I-70, (R)-3-(5-fluoro-2-vinylpyridin-4-yl)-10-methyl-9,10,11,12-tetrahydro-8H-[1,4]diazepino[5′,6′:4,5]thieno[3,2-f]quinolin-8-one] | 0.064 µM
